Reference: patent US5091386A, “7-substituted derivatives of 3,5-dihydroxyhept-6-ynoic acids and corresponding lactones and their use as hypercholeserolemics” (Hoechst Aktiengesellschaft, priority 1988, dated 1992)

Legend:
HMG-CoA reductase = biological target: T1, HMG-CoA reductase (Rattus norvegicus, UniProt P51639); assay: HMG-CoA reductase activity in enzyme preparations (solubilized enzyme from liver microsomes of rats); type: biochemical; conditions: (SmR) 14C-HMG-CoA substrate
T1 construct: solubilized enzyme preparations from liver microsomes of rats; from tissue; host or cells: rat liver microsomes (solubilized), rats induced with cholestyramine
T1 sequence (P51639 1-887): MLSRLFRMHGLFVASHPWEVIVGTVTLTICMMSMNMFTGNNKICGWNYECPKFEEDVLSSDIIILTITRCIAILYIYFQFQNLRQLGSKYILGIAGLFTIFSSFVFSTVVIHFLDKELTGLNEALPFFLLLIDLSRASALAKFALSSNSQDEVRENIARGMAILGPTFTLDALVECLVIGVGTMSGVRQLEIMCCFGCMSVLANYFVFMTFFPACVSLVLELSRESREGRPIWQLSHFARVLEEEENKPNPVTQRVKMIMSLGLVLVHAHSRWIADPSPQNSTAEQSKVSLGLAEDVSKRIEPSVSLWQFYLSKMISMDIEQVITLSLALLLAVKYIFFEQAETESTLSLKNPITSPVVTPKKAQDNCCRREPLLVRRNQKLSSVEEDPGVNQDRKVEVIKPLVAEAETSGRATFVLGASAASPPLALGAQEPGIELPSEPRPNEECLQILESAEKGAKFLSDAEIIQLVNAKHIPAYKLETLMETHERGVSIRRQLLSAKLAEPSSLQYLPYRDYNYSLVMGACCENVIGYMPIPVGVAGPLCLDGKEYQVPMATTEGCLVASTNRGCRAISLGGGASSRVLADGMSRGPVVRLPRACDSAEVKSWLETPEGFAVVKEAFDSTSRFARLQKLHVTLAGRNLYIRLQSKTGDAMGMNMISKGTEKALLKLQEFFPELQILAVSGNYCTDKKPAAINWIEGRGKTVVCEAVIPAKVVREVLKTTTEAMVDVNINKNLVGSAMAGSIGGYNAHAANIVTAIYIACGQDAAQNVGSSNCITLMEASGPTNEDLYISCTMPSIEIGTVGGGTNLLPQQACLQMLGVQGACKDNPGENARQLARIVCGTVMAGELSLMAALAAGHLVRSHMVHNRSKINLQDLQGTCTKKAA
Procedure: The HMG-CoA reductase activity was measured on solubilized enzyme preparations from liver microsomes of rats which had been induced with cholestyramine (®Cuemid) after changing the day/night rhythm. (Sm R) ^14 C-HMG-CoA was used as substrate, and the concentration of NADPH was maintained during the incubation by a regenerating system. ^14 C-mevalonate was separated from the substrate and other products (for example ^14 C-HMG) by column elution, with the elution profile of each individual sample being determined. ^3 H-Mevalonate was not always included because the object was to determine relative data on the inhibitory effect. In each test series the enzyme-free control, the enzyme-containing normal mixture (=100%) and those with added product, final concentration 10^-5 to 10^-9 M, were treated together. Each individual value was formed as the mean of 3 parallel samples. The significance of the differences between means for product-free and product-containing samples was assessed by the t test.
Using the method described above, for example, the following values for the inhibition of HMG-CoA reductase were found for the compounds according to the invention [IC50 /mol/liter denotes the molar concentration of the compound per liter required for a 50% inhibition]. […]

[1] = tested on: cholesterol biosynthesis in HEP-G2 cells; assay: Inhibition of cholesterol biosynthesis in HEP-G2 cell cultures; type: cell-based; conditions: for IC50: Homo sapiens, HepG2, 14C-cholesterol formed from 14C-precursor; for relative activity (IC50 ref./IC50): vs analogous hept-6E-enoic acid derivative
Procedure: Monolayers of HEP-G2 cells in lipoprotein-free nutrient medium were preincubated with the appropriate concentrations of the test substances for a defined time (for example 1 hour) and, after addition of the labeled precursor, for example sodium ^14 C-acetate, the incubation was continued (for example for 3 hours). After addition of an internal standard (^3 H-cholesterol) a portion of the cells was subjected to alkaline hydrolysis. The lipids from the hydrolyzed cells were extracted with chloroform/methanol. This lipid mixture was, after addition of carrier cholesterol, subjected to preparative thin-layer chromatography, the cholesterol band was visualized with iodine vapor and then isolated, and the amount of ^14 C-cholesterol formed from the ^14 C-precursor was determined by scintigraphy. Cell protein was determined in an aliquot of the cells so that it is possible to calculate the amount of ^14 C-cholesterol formed in unit time per mg of cell protein. The inhibitory effect of the particular test product on cholesterol biosynthesis by HEP-G2 cell cultures emerged by comparison of this figure with the amount of ^14 C-cholesterol formed per mg of cell protein and unit time in a culture treated in the same way but free of test substance.
Testing of substances for inhibition of cholesterol biosynthesis in confluent cell cultures (monolayers) of HEP-G2 cells [drawing 17]
Using the method described above, for example the following figures for the inhibition of cholesterol biosynthesis (in HEP-G2 cells) were found for the compounds according to the invention (the IC50 /mol is that concentration of the compound which brings about 50% inhibition of cholesterol biosynthesis). IC50 values were determined for the compounds according to the invention as well as for identically substituted 3,5-dihydroxyhept6E-enoic acid derivatives (IC50 ref.). The quotient IC50 ref./IC50 yielded the relative activity of the compounds according to the invention. […] This corresponds to a relative activity of 1.6 based on the analogous hept-6E-enoic acid derivative.

Row | SMILES | IC50 (HMG-CoA reductase) | IC50 [1] | relative activity (IC50 ref./IC50) [1]
1 | CC(C)c1nc(-c2ccccc2)cc(-c2ccc(F)cc2)c1C#C[C@@H](O)C[C@@H](O)CC(=O)O (relative stereo) [Example 7a, sodium 3RS, 5SR-dihydroxy-7-(4-(4-fluorophenyl)-2-(1-methylethyl)-6-phenylpyridin-3-yl)hept-6-ynoate] | 3 nM |  | 
2 | CC(C)C(C#C[C@@H](O)C[C@@H](O)CC(=O)O)=C(c1ccc(F)cc1)c1ccc(F)cc1 (relative stereo) [Example 7l] | 5.7 nM |  | 
3 | CC(C)c1nc(-c2ccccc2)cc(-c2ccc(F)cc2)c1C#C[C@@H]1C[C@@H](O)CC(=O)O1 (relative stereo) [Example 8a, 6RS-2-(4-(4-Fluorophenyl)-2-(1-methylethyl)-6-phenylpyridin-3-yl)ethynyl-4SR-hydroxy-3,4,5,6-tetrahydro-2H-pyran-2-one] |  | 9 nM | 2.67
4 | CC(C)c1nc(-c2ccc(F)cc2)nc(-c2ccc(F)cc2)c1C#C[C@@H]1C[C@@H](O)CC(=O)O1 (relative stereo) [Example 8e] |  | 11 nM | 1.6
